Tested on: rash caused by small molecule EGFR inhibitors
Test: Prevention of rash caused by small molecule EGFR inhibitors, topical ointment, rat model
Format: in vivo, SD rats
Outline: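 Female SD rats (~200 g, dorsal hair shaved, 10/group) dosed daily by gavage with small-molecule EGFR inhibitors; compound ointment or blank matrix applied once daily to ~3 cm×3 cm of back, left 4 h, then wiped off. Repeated until obvious rash in controls; control rate = % of treated rats with milder rash than controls.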

C[C@@H]1CCN(C(=O)CC#N)C[C@@H]1N(C)c1ncnc2c1ccn2C(=O)N(C)CCOC(=O)C1CCCO1 (stereo partly shown) [Compound A7]
Control Rate (Afatinib 40 mg/kg once a day, ointment 0.1 wt% once a day, 14 days): 20%
Control Rate (Afatinib 40 mg/kg once a day, ointment 0.3 wt% once a day, 14 days): 50%
Control Rate (Afatinib 40 mg/kg once a day, ointment 1.0 wt% once a day, 14 days): 70%
Control Rate (Afatinib 40 mg/kg once a day, ointment 3.0 wt% once a day, 14 days): 75%
Control Rate (Afatinib 40 mg/kg once a day, ointment 5.0 wt% once a day, 14 days): 80%
Control Rate (Afatinib 40 mg/kg once a day, ointment 10.0 wt% once a day, 14 days): 60%
Control Rate (Dacomitinib 10 mg/kg once a day, ointment 1.0 wt% once a day, 12 days): 40%
Control Rate (Dacomitinib 10 mg/kg once a day, ointment 5.0 wt% once a day, 12 days): 80%
Control Rate (EAI045 80 mg/kg once a day, ointment 1.0 wt% once a day, 11 days): 30%
Control Rate (EAI045 80 mg/kg once a day, ointment 10.0 wt% once a day, 11 days): 60%
Control Rate (Gefitinib 80 mg/kg twice a day, ointment 0.3 wt% once a day, 15 days): 10%
Control Rate (Gefitinib 80 mg/kg twice a day, ointment 1.0 wt% once a day, 15 days): 50%
Control Rate (Gefitinib 80 mg/kg twice a day, ointment 3.0 wt% once a day, 15 days): 60%
Control Rate (Gefitinib 80 mg/kg twice a day, ointment 5.0 wt% once a day, 15 days): 60%
Control Rate (Osimertinib 60 mg/kg twice a day, ointment 0.3 wt% once a day, 10 days): 20%
Control Rate (Osimertinib 60 mg/kg twice a day, ointment 5.0 wt% once a day, 10 days): 70%

Reference: US20250188088A1, “COMPOUND AND USE THEREOF” (ONQUALITY PHARMACEUTICALS CHINA LTD., priority 2022, published 2025)
